For one data set, the system named is EV71 strain BrCr. The data set can be described thus: Antiviral activity on the replication of EV71 strain BrCr in RD cells. The data set is classed as cell-based, Enterovirus 71. Conditions: for EC50: Enterovirus A, virus replication inhibited by 50%. The method, then: (§1) The selectivity index (SI = CC50/EC50), a measure for the therapeutic window of the compound in the assay system, was then calculated. The antiviral effect of hinged aromatic compounds that adversely affected the host cell metabolism was likely as a result of a pleiotropic or non-specific effect on the host cell. […].
(§2) The biological activity of the 18 hinged aromatic compounds against EV71 was evaluated in a cell-based assay with live enteroviruses. The EV71 strains were originated from Chang Gung University of Taiwan. The rhabdomyosarcoma (RD) cells, grown for 3–4 days in tissue culture flasks, were harvested and seeded in MEM Rega 3 medium (Gibco, Merelbeke, Belgium) supplemented with fetal bovine serum (FBS, 2.0%, Integro, Merelbeke, Belgium), 200 mM L-glutamine (Gibco, Merelbeke, Belgium), and aqueous 7.5% NaHCO3 (Gibco, Merelbeke, Belgium). The microtitre plates were incubated overnight to produce a non-confluent cell monolayer. Then assay plates were transferred to a liquid handling platform, on which a sample dilution series was prepared at a sample concentration of 0.100 mg/mL or lower in DMSO. After preparation of the hinged compound dilution series, virus was added to the wells with a dilution optimized for each EV71 strain. The final, maximal DMSO concentration that reached in the assay wells with the highest sample input (1.0%) was tolerated well by the cells. The assay plates were returned to the incubator at 37 °C (5.0% CO2) for four days. According to the manufacturers’ instructions (Promega, Leiden, The Netherlands), residual cell viability was then quantified by use of an MTS readout method.

A short description of data set [1]: Lipophilicity by shake-flask method with UV spectrometry. The data set is classed as physicochemical. Conditions: n-octane and water, 25 ± 1 °C, average of three independent experiments. The method, then: The log P values associated with the molecular lipophilicity of all hinged aromatic compounds with polynuclei were obtained by use of the ''shake-flask method'' [46]. The partition coefficient was measured as the ratio of the equilibrium concentrations of a dissolved hinged compound in a two-phase system consisting of n-octane and water, which are immiscible solvents. The temperature was kept constant at 25 ± 1 °C. The analytical method employed was UV spectrometry.

A short description of data set [2]: Adverse effect on host cell metabolism (MTS method) in RD cells. The data set is classed as cell-based. Particulars: human, RD (rhabdomyosarcoma) cells, RD host cell metabolism reduced by 50%. The method, then:
as §1, §2

Usually EC50 stands for the concentration that produces a half-maximal response. Read a low EC50 as higher potency in that assay. By CC50 is commonly meant the concentration at which the toxic effect on the cells reaches its halfway point. High values mean lower toxicity to the cells, low ones greater toxicity to the cells. One may read the melting point as the temperature, or range, at which the solid turns liquid.

Some results are limits rather than exact numbers.

For the molecule `Cc1cc(-c2cccc(-c3ccc(C(=O)N4CCOCC4)o3)c2)n[nH]1` [21b, Morpholino-(5-[3-(5-methyl-1H-pyrazol-3-yl)phenyl]furan-2-yl)methanone], the EC50 with EV71 strain BrCr came out at 13 ± 2.5 µM. The logD hydrocarbon water in data set [1] was determined as 2.87.

The molecule `CCOC(=O)c1ccc(OCCC2CCN(c3ccc(C)nn3)CC2)cc1` [Pirodavir, reference compound] displayed an EC50 with EV71 strain BrCr of 0.3 ± 0.1 µM. In data set [2], this molecule came in with a CC50 at 4 days above 54 µM.

Take `O=C(c1ccc(-c2cccc(-c3cc[nH]n3)c2)o1)N1CCCCC1` [10b, Piperidin-1-yl(5-[3-(1H-pyrazol-3-yl)phenyl]furan-2-yl)methanone]: in the data set with EV71 strain BrCr, the “SI (selectivity index = CC50/EC50)” value was 6.70 and the EC50 was 2.14 ± 0.12 µM. The molecule further registered a logD hydrocarbon water in data set [1] of 3.87. Also, the CC50 at 4 days in data set [2] is 14.3 ± 1 µM.

In the data set with EV71 strain BrCr, `COc1ccc(-c2cc(-c3cccc(-c4ccc(C(=O)N5CCOCC5)o4)c3)n[nH]2)cc1` [21e, Morpholino[5-(3-[5-(4-methoxyphenyl)-1H-pyrazol-3-yl]phenyl)furan-2-yl]methanone] showed an EC50 below 1.4 µM. Besides, the logD hydrocarbon water in data set [1] amounted to 3.96. Moreover, the cytotoxic concentration (CC50) at 4 days in data set [2] was 2.09 ± 0.1 µM.

For the molecule `O=C(c1ccc(-c2cccc(-c3cc[nH]n3)c2)o1)N1CCOCC1` [21a], in the data set on EV71 strain BrCr, a half-maximal effect (EC50) was put at 11.6 ± 0.3 µM. This molecule came in with a logD hydrocarbon water in data set [1] of 2.6.

As to `O=C(c1ccc(-c2cccc(-c3cc[nH]n3)c2)o1)N1CCCCCC1` [10c, Azepan-1-yl(5-[3-(1H-pyrazol-3-yl)phenyl]furan-2-yl)methanone], in the data set with EV71 strain BrCr, the “SI (selectivity index = CC50/EC50)” value is given as 13.1 and the EC50 was found to be 6.16 ± 0.15 µM. In data set [1], this molecule returned a logD hydrocarbon water of 4.22. Also, in data set [2], the cytotoxic concentration (CC50) at 4 days was 81.1 ± 3 µM.

As for `COc1ccc(NC(=O)c2ccc(-c3cccc(-c4cc[nH]n4)c3)o2)cc1` [12b, N-(4-Methoxyphenyl)-5-[3-(1H-pyrazol-3-yl)phenyl]-furan-2-carboxamide], in the data set on EV71 strain BrCr, the “SI (selectivity index = CC50/EC50)” value stood at 8.70 and a half-maximal effect (EC50) was put at 2.41 ± 0.3 µM. The logD hydrocarbon water in data set [1] turned out to be 4.15. This molecule displayed a half-maximal cytotoxic concentration (CC50) at 4 days in data set [2] of 21 ± 1.5 µM.

Molecule `O=C(c1ccc(-c2cccc(-c3cc(-c4ccccc4)[nH]n3)c2)s1)N1CCOCC1` [21g, Morpholino(5-[3-(5-phenyl-1H-pyrazol-3-yl)phenyl]thiophen-2-yl)methanone] gave a melting point of 239.6 to 241.8 °C. A half-maximal response with EV71 strain BrCr (EC50) required 241 ± 3 µM. In data set [1], this molecule gave a logD hydrocarbon water of 4.61.

For the molecule `O=C(c1ccc(-c2cccc(-c3cc(-c4ccc(C(F)(F)F)cc4)[nH]n3)c2)o1)N1CCOCC1` [21f, Morpholino(5-[3-(5-[4-(trifluoromethyl)phenyl]-1H-pyrazol-3-yl)phenyl]furan-2-yl)-methanone], the EC50 with EV71 strain BrCr was below 1.28 µM. Also, the logD hydrocarbon water in data set [1] turned out to be 4.33. The molecule further had a CC50 at 4 days in data set [2] of 3.28 ± 0.11 µM.

In data set [1], `O=C(c1ccc(-c2cccc(-c3cc(-c4ccccc4)[nH]n3)c2)o1)N1CCOCC1` [21c, Morpholino-(5-[3-(5-phenyl-1H-pyrazol-3-yl)phenyl]furan-2-yl)methanone] gave a logD hydrocarbon water of 3.92. This molecule gave a CC50 at 4 days in data set [2] of 4.13 ± 0.12 µM.

In the case of `COc1ccc(-c2cc(-c3cccc(-c4ccc(C(=O)N5CCOCC5)s4)c3)n[nH]2)cc1` [21h, [5-(3-[5-(4-Methoxyphenyl)-1H-pyrazol-3-yl]phenyl)thiophen-2-yl](morpholino)methanone], in the data set on EV71 strain BrCr, the “SI (selectivity index = CC50/EC50)” value came to 10.2 and the EC50 was determined as 4.1 ± 0.12 µM. The molecule further came in with a logD hydrocarbon water in data set [1] of 4.64. This molecule yielded a 50% cytotoxic concentration (CC50) at 4 days in data set [2] of 41.9 ± 2.2 µM.

For the molecule `O=C(c1ccc(-c2cccc(-c3cc(-c4ccc(C(F)(F)F)cc4)[nH]n3)c2)s1)N1CCOCC1` [21i, Morpholino(5-[3-(5-[4-(trifluoromethyl)phenyl]-1H-pyrazol-3-yl)phenyl]thiophen-2-yl)-methanone], in the data set on EV71 strain BrCr, the “SI (selectivity index = CC50/EC50)” value is recorded as 33.4 and the EC50 is 2.29 ± 0.1 µM. In data set [1], this molecule displayed a logD hydrocarbon water of 5.04. Half-maximal cytotoxicity in data set [2] (CC50 at 4 days) was put at 76.4 ± 3 µM.

In the case of `O=C(c1ccc(-c2cccc(-c3cc[nH]n3)c2)o1)N1CCCC1` [10a, (5-[3-(1H-Pyrazol-3-yl)phenyl]furan-2-yl)(pyrrolidin-1-yl)methanone], in the data set with EV71 strain BrCr, the “SI (selectivity index = CC50/EC50)” value is 7.30 and the midpoint of the response, the EC50, lay at 16.2 ± 1 µM. The molecule further yielded a logD hydrocarbon water in data set [1] of 3.42. In data set [2], this molecule came in with a half-maximal cytotoxic concentration (CC50) at 4 days of 119 ± 2 µM.

For the molecule `Cn1ccc(-c2cccc(-c3ccc(C(=O)N4CCOCC4)o3)c2)n1` [compound 23, Morpholino(5-[3-(1-methyl-1H-pyrazol-3-yl)phenyl]furan-2-yl)methanone], in the data set with EV71 strain BrCr, the EC50 is 34.6 ± 1 µM. In data set [1], the logD hydrocarbon water was determined as 2.75.

Take `Cc1ccc(-c2cc(-c3cccc(-c4ccc(C(=O)N5CCOCC5)o4)c3)n[nH]2)cc1` [21d, Morpholino[5-(3-[5-(p-tolyl)-1H-pyrazol-3-yl]phenyl)furan-2-yl]methanone]: the logD hydrocarbon water in data set [1] came out at 4.3. The molecule further registered a CC50 at 4 days in data set [2] of 3.25 ± 0.3 µM.

Consider `Cn1c(C(=O)N2CCOCC2)ccc1-c1cccc(-c2cc[nH]n2)c1` [21j, Morpholino(5-[3-(1H-pyrazol-3-yl)phenyl]-1-methyl-1H-pyrrol-2-yl)methanone], for which the EC50 with EV71 strain BrCr stood at 223 ± 2 µM. In data set [1], this molecule yielded a logD hydrocarbon water of 2.56.

Consider `COCCNC(=O)c1ccc(-c2cccc(-c3cc[nH]n3)c2)s1` [compound 14, N-(2-Methoxyethyl)-5-[3-(1H-pyrazol-3-yl)phenyl]thiophene-2-carboxamide], for which the logD hydrocarbon water in data set [1] amounted to 3.15. In data set [2], the 50% cytotoxic concentration (CC50) at 4 days is 22.4 ± 2.5 µM.

In the data set with EV71 strain BrCr, `O=C(NC1CC1)c1ccc(-c2cccc(-c3cc[nH]n3)c2)o1` [compound 13, N-Cyclopropyl-5-[3-(1H-pyrazol-3-yl)phenyl]furan-2-carboxamide] registered an EC50 of 15.1 ± 1 µM. The logD hydrocarbon water in data set [1] came out at 3.25.

For the molecule `O=C(Nc1ccc(F)cc1)c1ccc(-c2cccc(-c3cc[nH]n3)c2)o1` [12a, N-(4-Fluorophenyl)-5-[3-(1H-pyrazol-3-yl)phenyl]furan-2-carboxamide], the EC50 in the data set with EV71 strain BrCr was below 1.73 µM. In data set [1], the logD hydrocarbon water worked out at 4.18. In data set [2], this molecule had a CC50 at 4 days of 4.53 ± 0.1 µM.

Values taken from publication PMC7503712, “Enterovirus Inhibition by Hinged Aromatic Compounds with Polynuclei” (Molecules, 2020).
